Molecules are shown by their SMILES.

The values below come from patent publication US20170103183A1, “Model Generation for Drug Determination” (NORWEGIAN UNIVERSITY OF SCIENCE AND TECHNOLOGY, priority 2015, published 2017).

For this assay, the system named is AGS cells xenograft tumors. Nature of the assay: Subcutaneous AGS xenograft tumors in Balb/c mice. Format: in vivo. The conditions noted are these: single agent, low dose (PI103 5 mg/kg/d; (5Z)-7-oxozeaenol 3 mg/kg/d). How it is done:
To validate the beneficial response to one of the combination predicted and validated in cell line experiments the inventors generated subcutaneously injected xenograft tumors in Balb/c mice. 100 μl of 2×10^5 AGS cells were mixed with 100 μl of Matrigel and injected subcutaneously n the right flanks of 40 mice. Tumors were allowed to grow for 4 weeks, and mice with palpable tumors (n=30) were randomized to four groups: control, PI103 (5 mg/kg/d), (5Z)-7-oxozeaenol (3 mg/kg/d) and combination group which received both PI103 (5 mg/kg/d) and (5Z)-7oxozeaenol (3 mg/kg/d). Mice were injected with inhibitors or vehicle three times per week for a total of seven injections. Tumors were measured twice weekly using callipers and estimated volume from the formula V=0.5*d12*d2, where d1 is shortest diameter and d2 is longest diameter of tumor. Randomization was set up so that tumor volume was similar among groups at onset of treatment. […] Similar results were obtained for Mann-Whitney tests.

As for `COc1cc(O)c2c(c1)/C=C/C[C@H](O)[C@H](O)C(=O)/C=C\C[C@H](C)OC2=O` [(5Z)-7-oxozeaenol], the “activity of individual agent on tumor size compared to control” value is given as “non-significant”.

Turning to `Oc1cccc(-c2nc(N3CCOCC3)c3oc4ncccc4c3n2)c1` [PI103], the “activity of individual agent on tumor size compared to control” value is “non-significant”.
